Laboratory results reported in US10273237B2, “Imidazopyridazine compounds useful as modulators of IL-12, IL-23 and/or IFN-α responses” (BRISTOL-MYERS SQUIBB COMPANY, priority 2013, dated 2019).

Tests used:
[1] = tested on: IFNα-stimulated Kit225 T cells with STAT-dependent luciferase reporter; assay: Kit225 T cell assay, STAT-dependent luciferase reporter, IFNα stimulated; format: cell-based, human; details: 200 U/mL human recombinant IFNα, 5-6 hours, read-out: IFNa Kit225 Reporter, LE (IC50)
Description: (§1) Kit225 T cells with a stably-integrated STAT-dependent luciferase reporter were plated in RPMI (GIBCO) containing 10% heat-inactivated FBS (GIBCO) and 100 U/mL PenStrep (GIBCO). The cells were then stimulated with either 20 ng/mL human recombinant IL-23 or 200 U/mL human recombinant IFNα (PBL InterferonSource) for 5-6 hours. Luciferase expression was measured using the STEADY-GLO® Luciferase Assay System (PROMEGA®) according to the manufacturer's instructions.

[2] = tested on: IL-23-stimulated Kit225 T cells with STAT-dependent luciferase reporter; assay: Kit225 T cell assay, STAT-dependent luciferase reporter, IL-23 stimulated; format: cell-based, human; details: 20 ng/mL human recombinant IL-23, 5-6 hours, read-out: IL-23 Kit225 Reporter, LE (IC50)
Description: as §1

| SMILES | IC50 [1] | IC50 [2] |
| --- | --- | --- |
| CNc1cc(Nc2cccn(C)c2=O)nn2c(C(=O)N[C@H]3CCOC3)cnc12 [Example 58] | 970 nM | 90 nM |
| CNc1cc(Nc2cccn(C)c2=O)nn2c(C(=O)NC3CCC3)cnc12 [Example 68] | 10 nM | 30 nM |
| CNc1cc(Nc2cncn(-c3ccccn3)c2=O)nn2c(C(=O)NC3CCC3)cnc12 [Example 71] | 120 nM | 210 nM |
| CNc1cc(Nc2cncn(-c3ccc(C)nn3)c2=O)nn2c(C(=O)NC3CCC3)cnc12 [Example 78] | 180 nM | 230 nM |
| CNc1cc(Nc2cncn(-c3ccc(C)nn3)c2=O)nn2c(C(=O)N[C@@H]3C[C@@H]3F)cnc12 [Example 80] | 330 nM | 1740 nM |
| CNc1cc(Nc2nccn(C)c2=O)nn2c(C(=O)NC3CCC3)cnc12 [Example 84] | 4270 nM | 3860 nM |
| CNc1cc(Nc2cc(C)cn(-c3ccc(C)nn3)c2=O)nn2c(C(=O)NC3CC3)cnc12 [Example 91] | 150 nM | 230 nM |
| CNc1cc(Nc2cc(C)cn(-c3ccc(C)nn3)c2=O)nn2c(C(=O)NC3CCC3)cnc12 [Example 92] | 620 nM | 420 nM |
| CNc1cc(Nc2cc(F)cn(-c3ccc(C)nn3)c2=O)nn2c(C(=O)NC3CC3)cnc12 [Example 94] | 50 nM | 40 nM |
| CNc1cc(Nc2cccn(-c3ccc(C4CC4)nn3)c2=O)nn2c(C(=O)N[C@@H]3C[C@@H]3F)cnc12 [Example 98] | 20 nM | 40 nM |
| CNc1cc(Nc2cccn(C)c2=O)nn2c(C(=O)N[C@@H]3C[C@@H]3F)cnc12 [Example 116] | 50 nM | 80 nM |
| CNc1cc(Nc2cccn(-c3ccccc3)c2=O)nn2c(C(=O)NC3CC3)cnc12 [Example 119] | 120 nM | 80 nM |
| CNc1cc(Nc2cccn(-c3ccccc3)c2=O)nn2c(C(=O)NC3(C#N)CC3)cnc12 [Example 120] | 70 nM | 200 nM |
| CNc1cc(Nc2cc(F)cn(CC(C)(C)O)c2=O)nn2c(C(=O)NC3CC3)cnc12 [Example 121] | 290 nM | 590 nM |
| CNc1cc(Nc2cccn(C)c2=O)nn2c(C(=O)NC(C)(C)C#N)cnc12 [Example 130] | 310 nM | 640 nM |
| CNc1cc(Nc2cccn(-c3ccnc(F)c3)c2=O)nn2c(C(=O)NC3CC3)cnc12 [Example 134] | 140 nM | 220 nM |
| CNc1cc(Nc2cccn(-c3ccc(C(C)O)cc3)c2=O)nn2c(C(=O)NC3CC3)cnc12 (stereo not shown) [Example 135] | 240 nM | 280 nM |
| CNc1cc(Nc2cccn(-c3ccc(C(F)(F)F)cc3)c2=O)nn2c(C(=O)NC3(C#N)CC3)cnc12 [Example 137] | 140 nM | 290 nM |
| CNc1cc(Nc2cccn(-c3ccc(N4CCOCC4)cc3)c2=O)nn2c(C(=O)NC3CC3)cnc12 [Example 139] | 190 nM | 250 nM |
| CNc1cc(Nc2cccn(-c3ccc(C(C)O)cc3)c2=O)nn2c(C(=O)N[C@@H]3C[C@@H]3F)cnc12 (stereo partly shown) [Example 141] | 180 nM | 160 nM |
| CNc1cc(Nc2cccn(-c3ccc(C(C)O)cc3)c2=O)nn2c(C(=O)NC3CCC3)cnc12 (stereo not shown) [Example 142] | 90 nM | 70 nM |
| CNc1cc(Nc2cccn(-c3ccc(N4CCOCC4)cc3)c2=O)nn2c(C(=O)NC3CC3F)cnc12 (stereo not shown) [Example 147] | 20 nM | 30 nM |
| CNc1cc(Nc2cccn(-c3ccccc3)c2=O)nn2c(C(=O)NC3(C#N)CCC3)cnc12 [Example 148] | 280 nM | 120 nM |
| CNc1cc(Nc2cc(F)cn(-c3ccccn3)c2=O)nn2c(C(=O)NC3CC3)cnc12 [Example 149] | 60 nM | 70 nM |
| CNc1cc(Nc2cc(F)cn(-c3ccccn3)c2=O)nn2c(C(=O)NC3CCC3)cnc12 [Example 150] | 20 nM | 60 nM |
| CNc1cc(Nc2cc(F)cn(-c3ccccn3)c2=O)nn2c(C(=O)N[C@@H]3C[C@@H]3F)cnc12 [Example 151] | 20 nM | 30 nM |
| CNc1cc(Nc2cccn(-c3ccccc3F)c2=O)nn2c(C(=O)NC3CC3)cnc12 [Example 152] | 120 nM | 360 nM |
| CNc1cc(Nc2cccn(-c3ccccc3F)c2=O)nn2c(C(=O)NC3(C#N)CC3)cnc12 [Example 156] | 60 nM | 80 nM |
| CNc1cc(Nc2cccn(C3(C)CC3)c2=O)nn2c(C(=O)NC3CC3)cnc12 [Example 161] | 340 nM | 710 nM |
| CNc1cc(Nc2cccn(C3(C)CC3)c2=O)nn2c(C(=O)NC3(C#N)CC3)cnc12 [Example 162] | 250 nM | 650 nM |

Other lines, results leading:

| IC50 [1] | IC50 [2] | SMILES |
| --- | --- | --- |
| 270 nM | 640 nM | CNc1cc(Nc2cccn(-c3ccccn3)c2=O)nn2c(C(=O)N[C@@H]3CCOC3)cnc12 [Example 62] |
| 30 nM | 40 nM | CNc1cc(Nc2cccn(-c3ccc(C)nn3)c2=O)nn2c(C(=O)NC3CCC3)cnc12 [Example 64] |
| 40 nM | 60 nM | CNc1cc(Nc2cccn(-c3ccc(C)nn3)c2=O)nn2c(C(=O)N[C@@H]3C[C@@H]3F)cnc12 [Example 65] |
| 180 nM | 90 nM | CCNC(=O)c1cnc2c(NC)cc(Nc3cccn(-c4ccccn4)c3=O)nn12 [Example 66] |
| 140 nM | 70 nM | CCNC(=O)c1cnc2c(NC)cc(Nc3cccn(-c4cccc(F)n4)c3=O)nn12 [Example 67] |
| 30 nM | 20 nM | CNc1cc(Nc2cccn(-c3cccc(C(C)(C)O)n3)c2=O)nn2c(C(=O)NC3CCC3)cnc12 [Example 77] |
| 120 nM | 180 nM | CNc1cc(Nc2cccn(-c3cccc(C(C)(C)O)n3)c2=O)nn2c(C(=O)NC3CC3)cnc12 [Example 81] |
| 40 nM | 40 nM | CNc1cc(Nc2cccn(-c3cccc(C(C)(C)O)n3)c2=O)nn2c(C(=O)N[C@@H]3C[C@@H]3F)cnc12 [Example 82] |
| 150 nM | 160 nM | CNc1cc(Nc2cccn(-c3ccc(C)nn3)c2=O)nn2c(C(=O)NC3CCCC3)cnc12 [Example 95] |
| 110 nM | 190 nM | CNc1cc(Nc2cccn(-c3ccc(C)nn3)c2=O)nn2c(C(=O)NC(C)C)cnc12 [Example 97] |
| 230 nM | 110 nM | CCNC(=O)c1cnc2c(NC)cc(Nc3cccn(-c4ccc(C)nn4)c3=O)nn12 [Example 99] |
| 30 nM | 40 nM | CCCc1ccc(-n2cccc(Nc3cc(NC)c4ncc(C(=O)N[C@@H]5C[C@@H]5F)n4n3)c2=O)nn1 [Example 100] |
| 260 nM | 260 nM | CNc1cc(Nc2cccn(-c3ccc(C)nn3)c2=O)nn2c(C(=O)NCCF)cnc12 [Example 102] |
| 20 nM | 60 nM | CNc1cc(Nc2cccn(-c3cnc(C)cn3)c2=O)nn2c(C(=O)N[C@@H]3C[C@@H]3F)cnc12 [Example 103] |
| 80 nM | 200 nM | CNc1cc(Nc2cccn(-c3cccnn3)c2=O)nn2c(C(=O)NC3CCC3)cnc12 [Example 104] |
| 90 nM | 320 nM | CCC(C)NC(=O)c1cnc2c(NC)cc(Nc3cccn(-c4cccnn4)c3=O)nn12 (stereo not shown) [Example 105] |

| IC50 [1] | IC50 [2] | SMILES |
| --- | --- | --- |
| 270 nM | 230 nM | CCNC(=O)c1cnc2c(NC)cc(Nc3cccn(-c4ccn(C)n4)c3=O)nn12 [Example 107] |
| 80 nM | 210 nM | CNc1cc(Nc2cccn(-c3ccn(C)n3)c2=O)nn2c(C(=O)NC(C)C)cnc12 [Example 108] |
| 520 nM | 280 nM | CNc1cc(Nc2cccn(-c3cccnn3)c2=O)nn2c(C(=O)NCC(C)C)cnc12 [Example 112] |
| 150 nM | 240 nM | CNc1cc(Nc2cccn(C)c2=O)nn2c(C(=O)NCC(C)(C)CO)cnc12 [Example 117] |
| 240 nM | 440 nM | CNc1cc(Nc2cccn(-c3ccncc3)c2=O)nn2c(C(=O)NC3CC3)cnc12 [Example 128] |
| 160 nM | 440 nM | CNc1cc(Nc2cccn(C)c2=O)nn2c(C(=O)NC(C)C#N)cnc12 (stereo not shown) [Example 129] |
| 80 nM | 140 nM | CNc1cc(Nc2cccn(-c3cccc(F)n3)c2=O)nn2c(C(=O)NC3CC3)cnc12 [Example 144] |
| 30 nM | 40 nM | CNc1cc(Nc2cccn(-c3cc(C)n(C)n3)c2=O)nn2c(C(=O)NC3CC3)cnc12 [Example 154] |
| 20 nM | 30 nM | CNc1cc(Nc2cccn(-c3cc(C)on3)c2=O)nn2c(C(=O)NC3CCC3)cnc12 [Example 157] |
| 100 nM | 130 nM | CNc1cc(Nc2cccn(-c3ccn(C)n3)c2=O)nn2c(C(=O)NC3CC3)cnc12 [Example 158] |
| 40 nM | 30 nM | CNc1cc(Nc2cccn(-c3ccn(C)n3)c2=O)nn2c(C(=O)NC3CCC3)cnc12 [Example 159] |
| 30 nM | 50 nM | CNc1cc(Nc2cccn(-c3cc(C)n(C)n3)c2=O)nn2c(C(=O)N[C@@H]3C[C@@H]3F)cnc12 [Example 160] |
| 20 nM | 50 nM | CNc1cc(Nc2cccn(-c3ccn(C4CC4)n3)c2=O)nn2c(C(=O)N[C@@H]3C[C@@H]3F)cnc12 [Example 164] |
| 130 nM | 430 nM | CNc1cc(Nc2cccn(-c3ccn(C4CC4)n3)c2=O)nn2c(C(=O)NC3CC3)cnc12 [Example 165] |
| 50 nM | 290 nM | CNc1cc(Nc2cccn(-c3ccn(C4CC4)n3)c2=O)nn2c(C(=O)NC3CCC3)cnc12 [Example 166] |
| 130 nM | 100 nM | CNc1cc(Nc2cccn(-c3cccc(F)n3)c2=O)nn2c(C(=O)NC3(C#N)CC3)cnc12 [Example 167] |
